This is an account of results in a melting point compilation (Tetko et al.; mined from patent text by program, amines drawn as free bases though some values may be those of a salt).

As usually defined, the melting point is the temperature, or range, at which the solid turns liquid. `Cc1cc(Nc2cncc(Nc3cccc(C#N)c3)n2)n[nH]1`: the melting point lay in the range of 260 to 262 °C.

`CN1CCC(Cn2c(=O)[nH]c3ncc(-c4ccc(O)cc4)nc32)CC1` gave a melting point of 292 to 294 °C.

The compound `CC(=O)N1N=C(c2ccncc2)OC1(C)c1ccccc1` (stereo unspecified) displayed a melting point of 79 to 81 °C.

`COc1ccc2[nH]c(-c3cccc(C)c3)cc(=O)c2c1` yielded a melting point of 262 to 264 °C.

On to `NN(Cc1ccccc1[N+](=O)[O-])c1ccccc1`, for which the melting point was in the range of 67 to 69 °C.

`CCOC(=O)/C=C/c1cnn(Cc2ccc(OCc3nc(-c4ccccc4)oc3C)cc2)c1`: the melting point was in the range of 112 to 113 °C.

In the case of `Cn1c(=O)c(=O)[nH]c2cccnc21`, the melting point lay within 238 to 239 °C.

In turn, `CCCSC1=NSc2cc(C)cnc2N1Cc1ccc(-c2ccccc2-c2nnn[nH]2)cc1` yielded a melting point of 158 to 160 °C.

For the compound `CC(NC(=O)CNC(=O)c1ccccc1)C(C)(C)C` (stereo unspecified), the melting point was 124 to 126 °C.

`CCCCCC(=O)CCCCc1ccc(O)c(O)c1` gave a melting point of 76 to 78 °C.

Turning to `COc1ccc(NN=C(Cl)C(C)=O)cc1`, the melting point lay in the range of 114 to 116 °C.

As for `Cc1ccc(C(=O)Nc2ccc(C)c(-c3nc(OC(C)C)nc4c3CNC(=O)N4c3c(F)cccc3F)c2)cc1F`, the melting point lay in the range of 254 to 255 °C.

Compound `COc1cc(-c2ccc(Br)cc2)oc1-c1ccc(Br)cc1` came in with a melting point of 112 to 113 °C.

Turning to `O=C1Nc2cc(Cl)c(Cl)cc2N2CCNC[C@H]12`, the melting point fell in the range of 136 to 138 °C.

The compound `COC(=O)C(CS)NC(=O)C(=O)NCCS` (stereo unspecified) showed a melting point of 112 °C.

In turn, `O=C(COc1ccc2ccccc2c1)N1CCCN(c2cc(N3CCCC3)nc(N3CCCC3)n2)CC1` registered a melting point of 103 to 110 °C.

The compound `Cc1csc2c(CSc3nc4ccccc4[nH]3)nccc12` gave a melting point of 160 to 162 °C.

Compound `CC(C)(C)OC(=O)N1CC2CCCCC(C1)C2=O` came in with a melting point of 50 to 52 °C.

Consider `O=P(O)(O)C(O)(CCCc1ccc(Cl)cc1)P(=O)(O)O`, for which the melting point amounted to 181 °C.

Compound `O=C(c1ccc2ccccc2c1)N1CC[C@H](NCc2ccnc3ccccc23)C[C@H]1Cc1ccccc1` (relative stereo) had a melting point of 111 to 112 °C.

Take `CCOC(=O)C1=C(CN2C(=O)c3ccccc3C2=O)NC(CN2C(=O)c3ccccc3C2=O)=C(C(=O)OCC)C1c1ccccc1Cl`: the melting point lay within 162 to 164 °C.

Regarding `Nc1ccc(N(CCO)C(=O)OCc2ccccc2)c(O)c1`, the melting point was 142 °C.

`COc1ccc2c(c1)cc1cnc(Nc3ccc(N4CCOCC4)cc3OC)nn12` gave a melting point of 152 to 164 °C.

The compound `CN1CCN=C(c2ccccc2)c2cc(C#N)ccc21` registered a melting point of 149 to 150 °C.

`CCOC(=O)N1Cc2ccccc2C(Oc2cccc(C(F)(F)F)c2)C1` (stereo unspecified): the melting point lay within 98 to 100 °C.

Regarding `COc1cc2c(c3c1OC(C)(C)C3)C(c1ccc(=O)n(-c3ccc4ccccc4n3)c1)=NC(C)(C)C2`, the melting point fell in the range of 191 to 192 °C.

In turn, `CC(C)NC1=NS(=O)(=O)c2cccc(Cl)c2N1` displayed a melting point of 124 to 125 °C.

In turn, `CCC(O)c1cc(C)nc(Oc2c(C)cc(C)cc2C)c1C` (stereo unspecified) showed a melting point of 119 to 120 °C.

Compound `CCc1oc2ccccc2c1C(=O)c1ccc(Br)c(S(N)(=O)=O)c1` came in with a melting point of 202 to 206 °C.

The compound `CNC(=O)c1cccc(C)c1Nc1nc(Nc2ccc3c(c2)N(CCOC)C(=O)CCC3)ncc1Cl` came in with a melting point of 185 to 187 °C.

In the case of `CSc1nc(NC2CCCCC2)c2ccnc-2[nH]1`, the melting point lay within 189 to 190 °C.

Take `CC1(C)CC(=O)C(Br)(Cc2ccc(Cl)cc2)C(Br)C1` (stereo unspecified): the melting point is 82 to 84 °C.

`CC(C)c1cccc(-c2ccc(F)cc2)c1/C=C/CO` gave a melting point of 71 to 72 °C.

`Cc1oc(-c2cccc(Br)c2)nc1CCOc1ccc(OC(C)(C)C(=O)O)cc1` had a melting point of 158 to 159 °C.

In turn, `Cc1ccc(NCC2CCN(C3CCCC3)CC2)c(C(=O)Nc2ccc(Cl)cn2)c1` displayed a melting point of 173 to 175 °C.

`CCCC1=C(C#N)C(c2cccc3oc(C)nc23)c2c[nH]nc2N1` (stereo unspecified) showed a melting point of 208 °C.

In turn, `CN1C(=O)[C@@H](NC(=O)c2ccccc2I)N=C(c2ccccc2)c2ccccc21` registered a melting point of 115 to 120 °C.

As to `NC1C(=O)N2C1SC1(CCOCC1)C2C(=O)O` (stereo unspecified), the melting point lay within 189 to 192 °C.

In the case of `COc1ccc(C(=C2CN(C(c3ccccc3)c3ccccc3)C2)S(C)(=O)=O)cc1`, the melting point is 181 °C.

`CCC(CC)Nc1c([N+](=O)[O-])cc(C)c(CO)c1[N+](=O)[O-]` came in with a melting point of 51 to 54 °C.

For `CCOC(=O)CCCN1CCn2nc(C(=O)O)cc2C1=O`, the melting point is 175 °C.

`COc1ccc(N2CCN(NC(=S)NCC(OC)OC)CC2)cc1` came in with a melting point of 157 °C.

For the compound `O=C(Nc1ccccc1F)N1CCc2cc(S(=O)(=O)N3CCN(c4cccc(Cl)c4)CC3)ccc21`, the melting point was 174 to 175 °C.

Turning to `Cn1ncc2nn(-c3cccc(C(F)(F)F)c3)c(=O)cc21`, the melting point was in the range of 160 to 163 °C.

Consider `COc1ccc(/C=C/C(=O)CC(=O)/C=C/c2ccc(O)cc2)cc1O`, for which the melting point lay within 207 to 210 °C.

Consider `Clc1ccc(Nc2nnc(-c3cccc(Oc4ccc(Cl)c(Cl)c4)c3)s2)cc1Cl`, for which the melting point lay within 189 to 190 °C.

Regarding `O=C(O)C(O)N1C(=O)CCN1c1ccc(Cl)cc1` (stereo unspecified), the melting point fell in the range of 149 to 151 °C.

Take `COc1ccc(N2CCN(C(=O)Oc3ccc(Oc4ccc(C(F)(F)F)cn4)cc3)CC2)c(OC)c1`: the melting point was 98 to 99 °C.

Consider `Cc1ccc(SC(C#N)c2cccc(C(=O)c3ccccc3)c2)cc1` (stereo unspecified), for which the melting point was 79 to 79.5 °C.

As for `O=C1[C@H]2CCC[C@H]2Nc2cc([N+](=O)[O-])ccc2N1Cc1ccccc1` (relative stereo), the melting point fell in the range of 174 to 176 °C.

`CN(C)CCn1c(=O)[nH]c2ccccc21` returned a melting point of 106 to 108 °C.

In turn, `CCCn1nc(OCc2ccc3ccccc3n2)cc1CO` displayed a melting point of 95 to 96 °C.

`Cn1ccc2cc(NC(=O)/C=C/c3ccc(C(C)(C)C)cc3)ccc21` came in with a melting point of 171 °C.

Consider `Cc1ccc2[nH]c(=O)cc(CCCl)c2c1`, for which the melting point lay in the range of 215 to 216 °C.

Consider `C[C@@H](NC(=O)c1c[nH]c2ncc(-c3nn(CCO)c4cc(Cl)ccc34)nc12)C(=O)N1CC(C#N)C1`, for which the melting point lay in the range of 225 to 250 °C.

On to `Cc1c(-c2ccccc2)n(-c2c(F)c(F)c(F)c(F)c2F)c(-c2ccccc2)cc1=O`, for which the melting point was 192 to 194 °C.

`CCCCCCCCCCCCOC(=O)c1cc(N=NN(CCO)c2ccc(C)cc2)ccc1[N+](=O)[O-]` yielded a melting point of 64 to 66 °C.

Take `Cn1cncc1C(O)(c1ccc(F)cc1)c1ccc2nc(Cl)nc(-c3cccc(Cl)c3)c2c1` (stereo unspecified): the melting point came to 212 °C.

Compound `N#Cc1cc(C(F)(F)F)cc(Cl)c1F` had a melting point of 150 to 152 °C.

Turning to `O=C1c2c(O)cccc2C(c2ccccc2)c2cccc(O)c21`, the melting point fell in the range of 193 to 194 °C.

For the compound `CN(C)c1ccc2nc(N)c(C#N)c(O)c2c1`, the melting point was 360 °C.

As to `OCCCSc1ccc2nccn2n1`, the melting point lay in the range of 108 to 109 °C.

With `CCOC(=O)c1c(Br)nn(C)c1S(N)(=O)=O`, the melting point is 96 to 98 °C.

For the compound `N#Cc1ccc(C(=O)NC(=S)NC2CCCCC2)cc1`, the melting point lay within 136 to 137 °C.

With `O=C(O)c1nc(-c2ccc(Cl)cc2Cl)c(-c2ccccc2)s1`, the melting point worked out at 105 °C.

Compound `CCCCCCCCCOc1ccc(-c2ccc(OCC(C)CC)nn2)cc1` (stereo unspecified) displayed a melting point of 87 °C.

Take `COC(=O)NN=C1CCc2ccccc21`: the melting point lay in the range of 155 to 156 °C.

`S=C(NN=Cc1cccc(-c2ccccc2Br)n1)NN1CCCC1`: the melting point was 157 to 159 °C.

Take `O=C(Nc1ccccc1)N1CC2CCC(C1)O2`: the melting point lay within 184 to 186 °C.

For `COC(=O)C1=C(C)NC(C(OC)OC)=C(C(=O)OC)C1c1cccc2c(=O)c(C)c(-c3ccccc3)oc12` (stereo unspecified), the melting point was in the range of 166 to 168 °C.

On to `Cc1cc(C=CC#N)cc(C(=O)c2[nH]c(=O)[nH]c(=O)c2C(C)C)c1`, for which the melting point fell in the range of 233 to 235 °C.

For `CC(=O)N1CC(C)(C)c2c1cc(C)c(O)c2C`, the melting point fell in the range of 173 to 174 °C.

`CC(C)(C)c1cc(CCc2ccccc2NC(=O)N2CCC(N3CCCCC3)CC2)cc(C(C)(C)C)c1O` displayed a melting point of 64 to 67 °C.

`COCC(=O)N1c2ccc(N3C[C@H](CNC(C)=O)OC3=O)cc2C[C@H]1C` yielded a melting point of 174 to 175 °C.

`c1ccc2c(c1)CNc1c-2ccc2ccccc12` had a melting point of 186 to 188 °C.

`Clc1cccc2c1Oc1ccccc1N=C2N1CCN2CCC[C@H]2C1` showed a melting point of 150 to 151 °C.

`CCOCCOC(=O)C1=C(C)NC(C=O)=C(C(=O)OCC)C1c1cccc([N+](=O)[O-])c1` (stereo unspecified) showed a melting point of 100 to 101 °C.

In the case of `CCCSc1ncc(CCCC(=O)O)n1Cc1ccccc1Cl`, the melting point is 98 to 99 °C.

For `CNc1cc(N2CCOCC2)nc(N2CCOCC2)n1`, the melting point lay in the range of 127 to 128 °C.

Compound `CNc1cc2c(cc1C)c(=O)c(C(=O)O)cn2-c1cc(N)c(F)cc1F` yielded a melting point above 280 °C.

In turn, `O=Cc1ccc2c(c1)Cc1cccnc1O2` came in with a melting point of 171 to 173 °C.

In the case of `CCC1CCCC(C)C1=NC(C)COC` (stereo unspecified), the melting point lay within 109 to 113 °C.

Compound `COc1c([N+](=O)[O-])cc(C)c(C)c1[N+](=O)[O-]` gave a melting point of 67.3 to 67.6 °C.

Regarding `NS(=O)(=O)c1ccccc1C(=O)OCCO`, the melting point was 84 to 86.5 °C.

In turn, `CCN1C(=O)CON(C(C)=O)C1c1ccccc1` (stereo unspecified) had a melting point of 130 to 132 °C.

`Cc1oc(-c2ccc(C(F)(F)F)cc2)nc1COc1cccc(CN(O)C(N)=O)c1`: the melting point is 125 to 126 °C.

For the compound `O=Cc1ccc(-c2ccc(O)cc2)c2sccc12`, the melting point is 202 to 204 °C.

In turn, `Cc1cc(Cl)c(C(=O)c2ccc(Cl)cc2)c(Cl)c1` registered a melting point of 112 to 114 °C.

In turn, `COC(=O)N(C)CCCCCC(=O)OC[C@@H]1CC(c2ccc(-c3ccc(N4C[C@H](Cn5ccnn5)OC4=O)cc3F)cn2)=NO1` came in with a melting point of 103 °C.

Consider `C#CC(=O)Oc1ccc(OCc2ccccc2)cc1`, for which the melting point was 45 to 47.5 °C.

Turning to `Cn1ncc(N)c1NCCO`, the melting point is 94 to 97 °C.
